Experimental data published in patent publication US20130040935A1, “CYCLIC KETO-ENOLS FOR THERAPY” (BAYER INTELLECTUAL PROPERTY GMBH, priority 2010, published 2013).
Like-named read-outs stand apart in the source and are kept apart here.

Key:
[1] = molecular target: human ACC2 (acetyl-coenzyme A carboxylase 2) (Homo sapiens, UniProt O00763); test: Human ACC2 enzyme assay, Assay B2 (ADP-Glo);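 also: human ACC2 activity read as ADP product, detected by luciferase glow luminescence after residual ATP removal, enzyme near 2 ng/µl in linear range, detection steps at 22 °C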
Chain of human ACC2 (acetyl-coenzyme A carboxylase 2) (O00763 27-2458 limits assumed): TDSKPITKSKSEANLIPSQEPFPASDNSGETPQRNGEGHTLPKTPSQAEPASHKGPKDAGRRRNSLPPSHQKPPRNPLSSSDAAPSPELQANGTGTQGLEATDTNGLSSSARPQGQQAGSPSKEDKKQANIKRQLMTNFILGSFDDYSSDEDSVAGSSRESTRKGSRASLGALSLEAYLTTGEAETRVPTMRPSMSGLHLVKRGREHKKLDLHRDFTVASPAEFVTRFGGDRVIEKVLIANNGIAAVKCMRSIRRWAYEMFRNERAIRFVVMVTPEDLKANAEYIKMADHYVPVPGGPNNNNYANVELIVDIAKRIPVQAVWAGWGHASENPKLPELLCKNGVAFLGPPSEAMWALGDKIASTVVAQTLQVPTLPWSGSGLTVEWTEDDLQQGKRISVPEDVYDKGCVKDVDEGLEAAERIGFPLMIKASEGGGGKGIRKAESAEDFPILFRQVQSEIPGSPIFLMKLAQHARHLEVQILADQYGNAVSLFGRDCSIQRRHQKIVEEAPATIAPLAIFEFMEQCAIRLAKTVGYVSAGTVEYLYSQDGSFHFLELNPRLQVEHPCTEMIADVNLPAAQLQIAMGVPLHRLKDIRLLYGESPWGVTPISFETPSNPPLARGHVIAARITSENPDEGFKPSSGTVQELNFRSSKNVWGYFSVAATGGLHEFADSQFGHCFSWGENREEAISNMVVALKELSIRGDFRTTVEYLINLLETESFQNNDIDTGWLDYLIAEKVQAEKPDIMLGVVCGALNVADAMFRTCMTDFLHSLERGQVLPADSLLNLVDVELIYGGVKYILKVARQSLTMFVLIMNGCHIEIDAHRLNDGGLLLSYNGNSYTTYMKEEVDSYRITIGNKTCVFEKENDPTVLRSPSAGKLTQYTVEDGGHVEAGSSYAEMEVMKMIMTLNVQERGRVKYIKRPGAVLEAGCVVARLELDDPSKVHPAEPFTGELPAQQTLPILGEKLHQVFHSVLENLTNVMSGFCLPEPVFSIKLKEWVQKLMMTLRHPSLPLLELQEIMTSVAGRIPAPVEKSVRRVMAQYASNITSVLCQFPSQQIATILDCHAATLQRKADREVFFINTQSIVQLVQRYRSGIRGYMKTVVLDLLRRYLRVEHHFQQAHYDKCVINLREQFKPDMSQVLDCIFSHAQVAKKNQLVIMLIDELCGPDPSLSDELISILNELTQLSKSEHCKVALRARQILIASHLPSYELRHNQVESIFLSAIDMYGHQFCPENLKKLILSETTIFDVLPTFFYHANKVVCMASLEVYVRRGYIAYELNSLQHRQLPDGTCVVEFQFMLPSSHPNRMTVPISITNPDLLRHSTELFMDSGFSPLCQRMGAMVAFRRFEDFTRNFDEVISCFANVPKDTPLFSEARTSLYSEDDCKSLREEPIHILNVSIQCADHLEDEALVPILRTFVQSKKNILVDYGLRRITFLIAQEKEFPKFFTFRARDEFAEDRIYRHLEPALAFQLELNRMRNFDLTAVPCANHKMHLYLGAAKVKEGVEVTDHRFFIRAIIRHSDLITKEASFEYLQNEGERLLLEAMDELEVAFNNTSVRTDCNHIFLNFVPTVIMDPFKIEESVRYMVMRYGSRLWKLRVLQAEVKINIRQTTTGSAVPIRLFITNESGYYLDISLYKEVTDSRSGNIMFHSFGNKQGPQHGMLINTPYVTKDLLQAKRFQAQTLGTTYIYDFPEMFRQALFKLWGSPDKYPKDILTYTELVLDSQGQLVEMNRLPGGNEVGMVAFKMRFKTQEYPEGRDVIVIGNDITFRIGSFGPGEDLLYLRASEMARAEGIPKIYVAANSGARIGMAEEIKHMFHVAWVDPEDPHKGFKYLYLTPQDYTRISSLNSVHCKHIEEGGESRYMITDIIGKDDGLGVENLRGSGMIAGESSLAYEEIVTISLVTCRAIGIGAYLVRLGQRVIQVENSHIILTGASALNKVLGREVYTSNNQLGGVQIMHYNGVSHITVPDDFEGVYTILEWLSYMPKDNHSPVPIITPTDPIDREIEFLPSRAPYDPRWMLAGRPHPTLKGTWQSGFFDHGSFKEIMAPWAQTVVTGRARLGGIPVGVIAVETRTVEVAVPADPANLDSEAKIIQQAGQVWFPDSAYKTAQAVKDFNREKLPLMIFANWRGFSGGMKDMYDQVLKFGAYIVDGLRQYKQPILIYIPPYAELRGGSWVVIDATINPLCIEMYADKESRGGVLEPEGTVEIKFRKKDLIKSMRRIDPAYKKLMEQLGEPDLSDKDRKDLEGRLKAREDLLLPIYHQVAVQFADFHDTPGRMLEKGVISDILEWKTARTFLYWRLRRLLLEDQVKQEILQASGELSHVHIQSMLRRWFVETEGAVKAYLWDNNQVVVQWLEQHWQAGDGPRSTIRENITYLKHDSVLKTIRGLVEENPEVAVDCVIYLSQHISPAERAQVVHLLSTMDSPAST

MCF7 = test: Cell proliferation assay (CellTiter-Glo, 96 h), MCF7; format: cell-based; conditions: Homo sapiens
Experimental: In accordance with the invention, the substances were tested in cell-based assays for the ability of the substances of inhibiting tumour cell proliferation after a 96-hour incubation with the substance. Cell viability was tested using the CellTiter-Glo® luminescent cell viability assay (Promega). The cells were sown at a density of 2000-5000 cells/well (depending on the cell line) in 100 μl growth medium on 96-well microtitre plates. For each cell line examined, cells were sown on a separate plate to determine the luminescence at t=0 hours and t=96 hours. After overnight incubation at 37° C., the luminescence values for the t=0 samples were determined. The dose plates for the t=96 hours points in time were treated with substances diluted with growth medium. The cells were then incubated at 37° C. for 96 hours, and the luminescence values for the t=96 hours sample were then determined. For data analysis, the t=0 values were subtracted from the t=96 hour values for treated and untreated samples. The differences in luminescence in percent between substance-treated samples and control values were used to determine the growth inhibition in percent.
The substances were tested in the following cell lines which represent the stated indications in an exemplary manner: […]

[2] = molecular target: T1, human ACC1 (acetyl-coenzyme A carboxylase alpha transcript variant 1) (Homo sapiens, UniProt Q13085); test: Human ACC1 enzyme assay, Assay B1 (ADP-Glo); format: biochemical
T1 construct: FLAG (C); made in house; host or cells: baculovirus-infected insect cells (Hi5)

[3] = MCF7, Table 7, 96-hour incubation
[4] = Assay B1, read-out: ACC 1 (=B1) IC50
[5] = MCF7, Table 9a, 96-hour incubation

| Compound | IC50 [1] [nM] | IC50 [2, 4] [nM] | IC50 [2] [nM] | also measured |
| --- | --- | --- | --- | --- |
| CO[C@H]1CC[C@]2(CC1)NC(=O)C(c1cc(-c3ccc(F)c(Cl)c3)ccc1C)=C2O [1-43, (5s,8s)-3-(3′-chloro-4′-fluoro-4-methylbiphenyl-3-yl)-4-hydroxy-8-methoxy-1-azaspiro[4.5]dec-3-en-2-one] | > 20000 | 4930 | – | IC50 (MCF7; [3]): 1220 nM |
| Cc1ccc(-c2ccc(Cl)cc2)cc1C1=C(O)CN(C2CCCCC2)C1=O [1-22, 3-(4′-chloro-4-methylbiphenyl-3-yl)-1-cyclohexyl-4-hydroxy-1,5-dihydro-2H-pyrrol-2-one] | 16300 | 2680 | – | IC50 (MCF7; [3]): 436 nM |
| Cc1ccc(-c2ccc(Cl)cc2)c(C)c1C1=C(O)C2(CCCOC2)NC1=O (stereo not shown) [1-10, 3-(4′-chloro-2,4-dimethylbiphenyl-3-yl)-4-hydroxy-7-oxa-1-azaspiro[4.5]dec-3-en-2-one] | 9460 | – | 500 | IC50 (MCF7; [3]): 1300 nM |
| CCCC1CCC2(CC1)CC(=O)C(c1cc(-c3ccc(Cl)cc3)ccc1C)=C2O (stereo not shown) [6-6, 3-(4′-chloro-4-methylbiphenyl-3-yl)-4-hydroxy-8-propylspiro[4.5]dec-3-en-2-one] | 1250 | 946 | – | IC50 (MCF7; [5]): 582 nM |
| Cc1ccc(-c2ccc(Cl)cc2)cc1C1=C(O)CC2(CCCCC2)CC1=O [7-2, 3-(4′-chloro-4-methylbiphenyl-3-yl)-4-hydroxyspiro[5.5]undec-3-en-2-one] | – | 501 | – | IC50 (MCF7; [5]): 1210 nM |
| CO[C@H]1CC[C@]2(CC1)NC(=O)C(c1c(C)cc(C)c(-c3ccc(F)cc3)c1C)=C2O [1-42, (5s,8s)-3-(4′-fluoro-2,4,6-trimethylbiphenyl-3-yl)-4-hydroxy-8-methoxy-1-azaspiro[4.5]dec-3-en-2-one] | – | – | – | IC50 (MCF7; [3]): 1280 nM |
| Cc1ccc(-c2ccc(Cl)cc2)cc1C1=C(O)CC(C)(C)CC1=O [7-5, 2-(4′-chloro-4-methylbiphenyl-3-yl)-3-hydroxy-5,5-dimethylcyclohex-2-en-1-one] | – | – | 906 | IC50 (MCF7; [5]): 992 nM |
| Cc1ccc(-c2ccc(Cl)cc2)cc1C1=C(O)CC(C)(C)NC1=O [9-1, 3-(4′-chloro-4-methylbiphenyl-3-yl)-4-hydroxy-6,6-dimethyl-5,6-dihydropyridin-2(1H)-one] | – | 3760 | – | IC50 (MCF7; MCF7 cells): 1260 nM |
| O=C1C(c2cc(-c3ccc(Cl)cc3)ccc2Cl)C(=O)N2CCCCN12 [8-2, 2-(4,4′-dichlorobiphenyl-3-yl)tetrahydro-1H-pyrazolo[1,2-a]pyridazine-1,3(2H)-dione] | – | – | 401 | IC50 (MCF7; [5]): 878 nM |
| Cc1ccc(-c2ccc(Cl)cc2)cc1C1=C(O)CC(C)(C)N(C)C1=O [9-4, 3-(4′-chloro-4-methylbiphenyl-3-yl)-4-hydroxy-1,6,6-trimethyl-5,6-] | – | 2540 | – | IC50 (MCF7; MCF7 cells): 3440 nM |
| Cc1ccc(-c2ccc(Cl)cc2)cc1C1=C(O)C2(CCC3(CC2)OCCO3)OC1=O [2-15, 11-(4′-chloro-4-methylbiphenyl-3-yl)-12-hydroxy-1,4,9-trioxadispiro[4.2.4.2]tetradec-11-en-10-one] | 8020 | – | – | IC50 ([2]; Assay B1, ADP-Glo, read-out: ACC 1 (=B1) IC50): 111 nM |
| CC[C@]1(OC)CC[C@@]2(CC1)NC(=O)C(c1c(C)ccc(-c3ccc(Cl)cc3)c1C)=C2O [1-88, (5r,8r)-3-(4′-chloro-2,4-dimethylbiphenyl-3-yl)-8-ethyl-4-hydroxy-8-methoxy-1-azaspiro[4.5]dec-3-en-2-one] | 11700 | – | 452 | – |
| Cc1ccc(-c2ccc(Cl)cc2)cc1C1=C(O)C2(CCC3(CC2)OCC(C)CO3)NC1=O (stereo not shown) [1-66, 3-(4′-chloro-4-methylbiphenyl-3-yl)-4-hydroxy-11-methyl-9,13-dioxa-1-azadispiro[4.2.5.2]pentadec-3-en-2-one] | 3130 | – | 493 | – |
| CCOC1CCCC2(C1)NC(=O)C(c1c(C)ccc(-c3ccc(Cl)cc3)c1C)=C2O (stereo not shown) [1-73, 3-(4′-chloro-2,4-dimethylbiphenyl-3-yl)-7-ethoxy-4-hydroxy-1-azaspiro[4.5]dec-3-en-2-one] | > 20000 | 563 | – | – |
| CCOC1CCC2(CC1)NC(=O)C(c1c(C)cc(C)c(-c3ccc(Cl)cc3)c1C)=C2O (stereo not shown) [1-75, 3-(4′-chloro-2,4,6-trimethylbiphenyl-3-yl)-8-ethoxy-4-hydroxy-1-azaspiro[4.5]dec-3-en-2-one] | 803 | – | 5680 | – |
| COC1CCC2(CC1)OC(=O)C(c1c(C)ccc(-c3ccc(Cl)cc3)c1C)=C2O (stereo not shown) [2-34, 3-(4′-chloro-2,4-dimethylbiphenyl-3-yl)-4-hydroxy-8-methoxy-1-oxaspiro[4.5]dec-3-en-2-one] | – | – | – | IC50 (MCF7; MCF7 cells): 429 nM |
